# Measurements taken from patent publication US20200239921A1, “CHEMOENZYMATIC SYNTHESIS OF S-NUCLEOSYL AMINO ACIDS (SNA), ANALOGS OF S-ADENOSYL-L-METHIONINE AND S-ADENOSYL-L- HOMOCYSTEINE AND USES THEREOF” (ALBERT EINSTEIN COLLEGE OF MEDICINE, priority 2016, published 2020).
# Tests used:
# [1] = test system: AK/MK/PK enzymatic system; assay: AK/MK/PK enzymatic conversion to nucleoside triphosphate; type: biochemical
# [2] = target: T1, S-adenosyl-L-homocysteine hydrolase from Lupinus luteus (L/SAHH) (Lupinus luteus, UniProt Q9SP37); assay: SAHH-catalysed synthesis of SAH analogs; type: biochemical; settings: in vitro, reaction displaced toward SAH production
# T1 construct: made in house; host or cells: E. coli
# T1 sequence (Q9SP37 1-485): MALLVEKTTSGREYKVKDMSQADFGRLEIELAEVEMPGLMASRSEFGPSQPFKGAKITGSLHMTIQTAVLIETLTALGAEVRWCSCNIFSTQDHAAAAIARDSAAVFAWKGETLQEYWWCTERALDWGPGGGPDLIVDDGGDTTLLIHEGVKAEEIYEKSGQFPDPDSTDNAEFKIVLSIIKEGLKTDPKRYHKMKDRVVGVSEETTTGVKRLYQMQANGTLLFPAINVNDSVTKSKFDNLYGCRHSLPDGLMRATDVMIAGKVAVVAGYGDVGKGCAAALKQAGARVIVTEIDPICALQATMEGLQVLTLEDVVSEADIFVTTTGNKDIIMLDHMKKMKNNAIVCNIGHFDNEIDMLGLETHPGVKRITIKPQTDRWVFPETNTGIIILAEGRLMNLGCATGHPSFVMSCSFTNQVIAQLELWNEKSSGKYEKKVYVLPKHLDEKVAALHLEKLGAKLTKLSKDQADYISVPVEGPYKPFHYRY
# Description: Alternative chemoenzymatic routes. A few SNA probes are difficult to prepare. To broaden the substrate diversity, the reversible reaction catalyzed by S-adenosyl-L-homocysteine hydrolase from Lupinus luteus (L/SAHH) that is displaced toward SAH production in vitro was used (FIG. 5B). […] This powerful catalyst was a useful tool for production of S-nucleosyl-L-homocysteine and S-nucleosyl-L-cysteine analogs (SNH and SNC, respectively). Unlike SAM analogs, SNH and SNC probes are not substrates for PRMTs, so they are assayed as competitive inhibitors.
# [3] = target: T2, Methanococcus jannaschii MAT (MjMAT) (Methanocaldococcus jannaschii, UniProt Q58605); assay: MjMAT substrate specificity (HPLC); type: biochemical; settings: in the presence of ATP
# T2 construct: made in house; host or cells: E. coli
# T2 sequence (Q58605 1-406): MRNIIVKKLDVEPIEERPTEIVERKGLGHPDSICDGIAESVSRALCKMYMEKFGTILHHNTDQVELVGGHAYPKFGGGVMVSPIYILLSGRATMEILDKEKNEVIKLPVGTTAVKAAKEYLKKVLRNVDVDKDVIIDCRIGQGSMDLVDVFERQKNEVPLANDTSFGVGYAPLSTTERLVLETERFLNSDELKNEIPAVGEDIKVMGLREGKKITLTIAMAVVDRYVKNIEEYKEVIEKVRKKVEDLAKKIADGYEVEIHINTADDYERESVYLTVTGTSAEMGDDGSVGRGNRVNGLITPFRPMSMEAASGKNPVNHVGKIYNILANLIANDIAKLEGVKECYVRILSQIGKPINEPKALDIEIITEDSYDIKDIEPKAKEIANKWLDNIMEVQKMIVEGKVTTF
# Method: Synthetic chemical approaches yield a 1:1 mixture of the two SAM stereoisomers (FIG. 4A, shaded middle frame). The enzymes that catalyze the formation of SAM from ATP and L-methionine in vivo are used to produce SAM analogs (MAT; FIG. 4A, top enzymatic approach). Adenosine phosphorylation is performed by kinases (e.g. adenosine kinase ‘AK’, myokinase ‘MK’ and pyruvate kinase ‘PK’; FIG. 4, top enzymatic approach). MAT proteins are well characterized and several mechanistic and structural biology reports make these enzymes the preferred biocatalyst for rapid access to SAM analogs. Methanococcus jannaschii MAT has been purified (MjMAT; FIG. 4B).
# (§1) An enzyme array to incorporate a broad spectrum of methionine analogs. To expand the SNA library, the reactivity of several methionine analogs (FIG. 4C, amino-acid tail labelled ‘METHIONINE’) was screened toward MjMAT in the presence of ATP. […] MAT enzymes from Neisseria meningitidis (Nm) and Campylobacter jejuni (Cj) (FIG. 4B) were expressed and purified.
# [4] = test system: MAT from Neisseria meningitidis (NmMAT); assay: NmMAT methionine analog specificity; type: biochemical; settings: FIG. 6
# Description: as §1
# [5] = test system: MAT from Campylobacter jejuni (CjMAT); assay: CjMAT methionine analog specificity; type: biochemical; settings: FIG. 6
# Description: as §1
# [6] = target: T3, SAM-dependent chlorinase from Salinispora tropica (StSalL) (Salinispora tropica, UniProt A4X3Q0); assay: StSalL methionine analog specificity; type: biochemical; settings: in the presence of 5′-chloro-5′-deoxy adenosine
# T3 construct: made in house; host or cells: E. coli
# T3 sequence (A4X3Q0 1-283): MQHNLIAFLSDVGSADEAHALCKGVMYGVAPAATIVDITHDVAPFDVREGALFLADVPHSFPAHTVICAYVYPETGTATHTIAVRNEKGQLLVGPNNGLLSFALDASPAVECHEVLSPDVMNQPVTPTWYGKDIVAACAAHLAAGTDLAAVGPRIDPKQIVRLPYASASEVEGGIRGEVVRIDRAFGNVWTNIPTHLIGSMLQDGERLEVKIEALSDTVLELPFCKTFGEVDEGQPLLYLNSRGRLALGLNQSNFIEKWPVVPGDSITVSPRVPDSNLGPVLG
# Method: The unique SAM-dependent chlorinase from the marine organism Salinispora tropica (StSalL) is a key enzyme for salinosporamide A biosynthesis. Although the occurrence of high chloride concentration (i.e. 546 mM) in sea water shifts the chemical equilibrium away from SAM synthesis, this reaction is reversible in vitro. StSalL (FIG. 4B) was expressed and purified, and the methionine analog specificity for this enzyme was determined in the presence of 5′-chloro-5′-deoxy adenosine (5′-ClDA; FIG. 6).
# PRMT1 = settings: cited from earlier work
# methyltransferases = settings: FIG. 2 first row from table; cited from earlier work
compound,measurement,setting,value
Nc1ncnc2c1ncn2[C@@H]1O[C@H](CO)[C@@H](O)[C@@H]1F [942′-deoxy-2′-fluoro-β-D-arabinofuranosylladenine],reactivity in AK/MK/PK enzymatic system,[1],low reactivity
N[C@@H](CS)C(=O)O [L-cysteine],utilization as substrate by SAHH,[2],could utilize
N[C@@H](CCS)C(=O)O [L-homocysteine],utilization as substrate by SAHH,[2],could utilize
"CSCC[C@H](N)C(=O)O [M0, L-methionine]",reactivity of methionine analog toward MjMAT,[3],efficiently processed
"CSCC[C@@H](N)C(=O)O [M1, D-methionine]",reactivity of methionine analog toward MjMAT,[3],efficiently processed
"CSCC[C@](C)(N)C(=O)O [M2, α-methyl-methionine]",reactivity of methionine analog toward NmMAT,[4],substrate
same,reactivity of methionine analog toward CjMAT,[5],substrate
"CSCC[C@H](N)CO [M3, (S)-(−)-methioniol]",reactivity of methionine analog toward CjMAT,[5],excellent substrate
"CSCCC(O)C(=O)O (centres unmarked) [M4, 2-hydroxy-4-(methylthio) butanoic acid]",reactivity of methionine analog toward MjMAT,[3],reactivity was not observed
same,reactivity of methionine analog toward NmMAT,[4],reactivity was not observed
same,reactivity of methionine analog toward CjMAT,[5],reactivity was not observed
same,reactivity of methionine analog toward StSalL,[6],Reactivity was observed
NCCCSC[C@H]1O[C@@H](n2cnc3c(N)ncnc32)[C@H](O)[C@@H]1O [S-(5′-adenosyl)-3-thiopropylamine],selectivity for PRMT1 over PRMT6,PRMT1,10 fold
"Nc1ncnc2c1ncn2[C@@H]1O[C@H](CSCC[C@H](N)C(=O)O)[C@@H](O)[C@H]1O [SAH, S-adenosyl-L-homocysteine]",inhibition of methyltransferases (in words),methyltransferases,"potent, yet non-specific, inhibitor of methyltransferases"
